Measurements from the NIST ThermoML archive (doi:10.1021/acs.jced.7b00433).

Test: xn = mol fraction of the nth substance listed
Details: Drop volume

O [water] + CCCCC(N)C(=O)O
x2 = 0
Details	surface tension liquid-gas [mN/m]
293.15 K	72.5
298.15 K	71.73
303.15 K	71
308.15 K	70.23
313.15 K	69.42

O [water] + NCC(=O)O
x2 = 0
Details	surface tension liquid-gas [mN/m]
293.15 K	72.45
298.15 K	71.73
303.15 K	71
308.15 K	70.22
313.15 K	69.45

CCCCC(N)C(=O)O (stereo not given) [2-aminohexanoic acid] + O
surface tension liquid-gas [mN/m]
Details	x1 = 0.000156	x1 = 0.000311	x1 = 0.000524	x1 = 0.000699	x1 = 0.000873	x1 = 0.001048	x1 = 0.001222	x1 = 0.001411
293.15 K	72.4	72.21	72.02	71.85	71.71	71.48	71.28	71.09
298.15 K	71.55	71.28	71.14	71	70.82	70.59	70.42	70.18
303.15 K	70.74	70.54	70.43	70.22	70.06	69.79	69.65	69.44
308.15 K	69.9	69.8	69.62	69.44	69.23	69	68.8	68.59
313.15 K	69.2	69.02	68.91	68.68	68.47	68.18	68.02	67.87

CC(N)C(=O)O (stereo not drawn) [DL-2-aminopropanoic acid] + O
surface tension liquid-gas [mN/m]
Details	x1 = 0.000176	x1 = 0.000353	x1 = 0.000705	x1 = 0.001055	x1 = 0.001406	x1 = 0.001752	x1 = 0.002105	x1 = 0.002642
293.15 K	72.52	72.53	72.55	72.58	72.59	72.62	72.64	72.68
298.15 K	71.83	71.86	71.9	71.95	72	72.07	72.1	72.18
303.15 K	71.11	71.15	71.25	71.35	71.44	71.5	71.61	71.72
308.15 K	70.4	70.42	70.57	70.7	70.83	70.94	71.09	71.28
313.15 K	69.48	69.59	69.73	69.87	70.02	70.2	70.36	70.57

O [water] + CCC(N)C(=O)O
x2 = 0
Details	surface tension liquid-gas [mN/m]
293.15 K	72.5
298.15 K	71.73
303.15 K	71.1
308.15 K	70.27
313.15 K	69.5

CCCC(N)C(=O)O (stereo not drawn) [DL-2-aminopentanoic acid] + O
surface tension liquid-gas [mN/m]
Details	x1 = 0.000173	x1 = 0.000347	x1 = 0.000561	x1 = 0.00104	x1 = 0.001386	x1 = 0.001733	x1 = 0.002079	x1 = 0.002641
293.15 K	72.55	72.51	72.43	72.37	72.31	72.25	72.16	72.06
298.15 K	71.84	71.8	71.71	71.63	71.53	71.47	71.41	71.25
303.15 K	71.16	71.13	71.01	70.91	70.79	70.71	70.65	70.5
308.15 K	70.35	70.31	70.2	70.1	70.02	69.85	69.78	69.63
313.15 K	69.39	69.34	69.22	69.07	69	68.86	68.75	68.58

NCC(=O)O [2-aminoacetic acid] + O
surface tension liquid-gas [mN/m]
Details	x1 = 0.000175	x1 = 0.000349	x1 = 0.000698	x1 = 0.001043	x1 = 0.001394	x1 = 0.00174	x1 = 0.002087	x1 = 0.002641
293.15 K	72.47	72.49	72.52	72.57	72.62	72.68	72.73	72.81
298.15 K	71.75	71.79	71.86	71.92	71.99	72.05	72.11	72.2
303.15 K	71.04	71.12	71.23	71.33	71.43	71.54	71.64	71.76
308.15 K	70.26	70.38	70.52	70.66	70.81	70.95	71.09	71.25
313.15 K	69.49	69.63	69.79	69.95	70.11	70.27	70.43	70.61

O [water] + CC(N)C(=O)O
x2 = 0
Details	surface tension liquid-gas [mN/m]
293.15 K	72.5
298.15 K	71.73
303.15 K	71.04
308.15 K	70.3
313.15 K	69.42

CCC(N)C(=O)O (stereo not drawn) [(.+-.)-α-aminobutyric acid] + O
surface tension liquid-gas [mN/m]
Details	x1 = 0.000177	x1 = 0.000351	x1 = 0.000702	x1 = 0.001053	x1 = 0.001403	x1 = 0.001754	x1 = 0.002103	x1 = 0.002641
293.15 K	72.49	72.49	72.48	72.47	72.46	72.45	72.44	72.43
298.15 K	71.8	71.79	71.77	71.75	71.74	71.72	71.71	71.69
303.15 K	71.08	71.07	71.05	71.02	71	70.98	70.96	70.93
308.15 K	70.25	70.24	70.21	70.19	70.15	70.13	70.09	70.07
313.15 K	69.47	69.45	69.42	69.39	69.35	69.31	69.28	69.22

O [water] + CCCC(N)C(=O)O
x2 = 0
Details	surface tension liquid-gas [mN/m]
293.15 K	72.58
298.15 K	71.73
303.15 K	71.21
308.15 K	70.4
313.15 K	69.46
